Test systems include A549 NSCLC; CCRF-CEM leukemia; COLO 205 colon; HOP-62 NSCLC; IGROV1 ovarian; MCF7 breast; NCI-H226 lung; NCI-H23 lung; PC-3 prostate; UACC-257 melanoma.
What all share (assay): inhibition of tumour cell growth, NCI panel, 48 h

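Step 1: Grow cells in 96-well plates. Step 2: Expose to compound for 48 hours at 5 concentrations. Step 3: Interpolate endpoints linearly; if unreached, use highest concentration. Abbreviation: GI50, concentration required for 50% inhibition of growth. Definition used: TGI = concentration required for complete inhibition of growth.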 Where a SMILES comes first, the peptide text is derived from it. [ ]: non-standard residue; d: D form. The star is where a group is joined. NMeF = CN[C@@H](Cc1ccccc1)C(=O)O; NMeV = CN[C@H](C(=O)O)C(C)C; Boc = CC(C)(C)OC(=O)*; OBn = c1ccc(CO*)cc1

Turning to `CC(C)[C@@H](C(=O)N1CCC[C@H]1C(=O)OCc1ccccc1)N(C)C(=O)[C@H](C(C)C)N(C)C(=O)[C@H](Cc1ccccc1)N(C)C(=O)[C@H](NC(=O)OC(C)(C)C)C(C)C` (Boc-[dV][NMeF][NMeV][NMeV]P-OBn), the GI50 in the assay on A549 NSCLC is > 100 µM; with CCRF-CEM leukemia, 36.9 µM; in the assay on COLO 205 colon it was 36.1 µM; with UACC-257 melanoma, 16.5 µM. Moreover, the TGI in the assay with A549 NSCLC is > 100 µM; with CCRF-CEM leukemia it was > 100 µM; in the assay with COLO 205 colon it was > 100 µM; in the assay on HOP-62 NSCLC it was > 100 µM; with IGROV1 ovarian, > 100 µM; in the assay on MCF7 breast, > 50 µM. For the same compound, the TGI in the assay on NCI-H226 lung is > 100 µM; in the assay with NCI-H23 lung it was > 50 µM; with PC-3 prostate it was > 50 µM; in the assay with UACC-257 melanoma it was > 100 µM.

As for `CC(=O)OC1Oc2cc(C)c(C)cc2-c2oc(=O)c(-c3ccc(F)cc3)cc21` (centres undefined), the GI50 in the assay with A549 NSCLC is 4.79 µM; in the assay with CCRF-CEM leukemia, 3.61 µM; with COLO 205 colon it was 7.3 µM; in the assay with HOP-62 NSCLC, 12.9 µM; with IGROV1 ovarian it was 7.94 µM; with MCF7 breast, 3.08 µM. The GI50 in the assay with NCI-H226 lung is 12.9 µM; with NCI-H23 lung it was 4.41 µM; in the assay with PC-3 prostate, 9.67 µM; with UACC-257 melanoma, 10.3 µM. Moreover, the TGI with A549 NSCLC is > 100 µM; in the assay on CCRF-CEM leukemia, 21.4 µM; with COLO 205 colon it was 26.1 µM; in the assay on HOP-62 NSCLC it was 72.5 µM; with IGROV1 ovarian, 85.2 µM; in the assay with MCF7 breast it was 20.1 µM. In addition, the TGI with NCI-H226 lung is > 100 µM; with NCI-H23 lung, 42.7 µM; in the assay with PC-3 prostate it was 39.8 µM; with UACC-257 melanoma, 26 µM.

On to `Cc1[nH]nc2ccc3nc(-c4ccc5[nH]ncc5c4)c4c(c3c12)CCCC4`, for which the GI50 was 0.932 µM in the assay on A549 NSCLC; 2.13 µM in the assay on CCRF-CEM leukemia; 1.09 µM with COLO 205 colon; 1.41 µM in the assay on HOP-62 NSCLC; 0.492 µM in the assay with IGROV1 ovarian; 3.54 µM in the assay with MCF7 breast. The GI50 in the assay with NCI-H226 lung is 1.89 µM; with NCI-H23 lung, 2.22 µM; in the assay with PC-3 prostate, 2.86 µM; in the assay on UACC-257 melanoma, 1.68 µM. Further, the TGI with A549 NSCLC was 12.4 µM; in the assay on CCRF-CEM leukemia it was > 100 µM; with COLO 205 colon, 10.8 µM; with HOP-62 NSCLC, 15.1 µM; in the assay on IGROV1 ovarian it was 7.14 µM; with MCF7 breast, 17.1 µM. In addition, the TGI was 10.8 µM in the assay with NCI-H226 lung, 11.2 µM with NCI-H23 lung, 23.6 µM in the assay on PC-3 prostate and 6.63 µM in the assay with UACC-257 melanoma.

On to `COc1cc(-n2cnc(-c3ccc(Cl)cc3)c2)cc(OC)c1OC`, for which the GI50 in the assay with A549 NSCLC is > 100 µM; with CCRF-CEM leukemia it was 21.4 µM; in the assay on COLO 205 colon, 15.4 µM; in the assay on HOP-62 NSCLC, 24.1 µM; in the assay with IGROV1 ovarian, 30.7 µM; in the assay on MCF7 breast, 17.9 µM. Also, the GI50 is > 100 µM with NCI-H226 lung, 17.9 µM in the assay on NCI-H23 lung, 12.7 µM with PC-3 prostate and 18.3 µM in the assay on UACC-257 melanoma. The TGI in the assay with A549 NSCLC was > 100 µM; in the assay with CCRF-CEM leukemia, 44.8 µM; with COLO 205 colon it was 29.8 µM; in the assay on HOP-62 NSCLC, 71.5 µM; in the assay on IGROV1 ovarian it was > 100 µM; in the assay on MCF7 breast, 34.7 µM. Besides, the TGI was > 100 µM with NCI-H226 lung, 35 µM in the assay on NCI-H23 lung, 31.7 µM with PC-3 prostate and 34.1 µM in the assay with UACC-257 melanoma.

Turning to `COC1=CC(c2ccc[nH]2)=N/C1=C\c1[nH]c(C)c(C(C)=O)c1C`, the GI50 with A549 NSCLC was 2.02 µM; in the assay with CCRF-CEM leukemia, 0.0183 µM; with COLO 205 colon it was 0.79 µM; with HOP-62 NSCLC it was 0.69 µM; in the assay on IGROV1 ovarian, 0.696 µM; with MCF7 breast, 1.05 µM. Further, the GI50 in the assay on NCI-H226 lung was 2.6 µM; in the assay on NCI-H23 lung, 5.12 µM; in the assay with PC-3 prostate, 0.302 µM; in the assay with UACC-257 melanoma it was 3.44 µM. In addition, the TGI in the assay on A549 NSCLC was > 44.8 µM; in the assay on CCRF-CEM leukemia, > 100 µM; in the assay with COLO 205 colon, > 100 µM; in the assay with HOP-62 NSCLC, > 42.2 µM; in the assay on IGROV1 ovarian it was > 100 µM; with MCF7 breast, > 100 µM. Further, the TGI with NCI-H226 lung is > 82.1 µM; in the assay with NCI-H23 lung, > 100 µM; in the assay with PC-3 prostate it was > 100 µM; in the assay with UACC-257 melanoma it was > 100 µM.

Consider `CCn1c(-c2nonc2N)nc2cncc(C(=O)NCCNC)c21`, for which the GI50 in the assay with A549 NSCLC was 4.47 µM; in the assay with CCRF-CEM leukemia it was > 19.9 µM; in the assay with COLO 205 colon, 1.15 µM; in the assay on HOP-62 NSCLC, 3.11 µM; with IGROV1 ovarian, 4.87 µM; in the assay on MCF7 breast it was 1.92 µM. In addition, the GI50 with NCI-H226 lung was 0.454 µM; with NCI-H23 lung it was 9.32 µM; in the assay with PC-3 prostate, > 25 µM; with UACC-257 melanoma it was 3.04 µM. The TGI with A549 NSCLC was > 23.3 µM; with CCRF-CEM leukemia, > 25 µM; in the assay on COLO 205 colon, 8.51 µM; in the assay with HOP-62 NSCLC, > 25 µM; in the assay on IGROV1 ovarian, > 22.6 µM; in the assay on MCF7 breast it was > 25 µM. Besides, the TGI with NCI-H226 lung, in the assay on NCI-H23 lung, with PC-3 prostate and with UACC-257 melanoma was > 25 µM each time.

Turning to `COc1cc(C2CC(c3ccccc3)=NN2C(C)=O)cc(OC)c1OC` (centres undefined), the GI50 in the assay on A549 NSCLC was 6.63 µM; in the assay on CCRF-CEM leukemia, 3.09 µM; with COLO 205 colon, 2.92 µM; in the assay with HOP-62 NSCLC, 5.59 µM; in the assay on IGROV1 ovarian, 4.66 µM; in the assay on MCF7 breast, 2.26 µM. Besides, the GI50 with NCI-H226 lung was 6.8 µM; in the assay with NCI-H23 lung it was 5.91 µM; in the assay on PC-3 prostate, 3.97 µM; in the assay with UACC-257 melanoma, > 100 µM. In addition, the TGI in the assay with A549 NSCLC is > 100 µM; in the assay on CCRF-CEM leukemia, > 100 µM; in the assay with COLO 205 colon, > 41 µM; in the assay on HOP-62 NSCLC, > 100 µM; in the assay with IGROV1 ovarian, > 100 µM; in the assay on MCF7 breast, > 100 µM. Also, the TGI in the assay with NCI-H226 lung, in the assay with NCI-H23 lung, in the assay on PC-3 prostate and in the assay with UACC-257 melanoma was > 100 µM each time.

The record behind these values is PubChem BioAssay (NCI).
